# Results reported in article PMC11506774 (Biomolecules, 2024).
# Ends that are not written are not given here.
# Experiments:
# [1] = test system: EV-A71/FY0805; details: for IC50 (µg/mL) EV-A71 /FY0805: 24 h
# [2] = test system: EV-A71/FY0805; test: Receptor competition inhibition assay with cell-free heparan sulfate (HS); format: cell-based; details: peptide 62.5 µg/mL pre-incubated with HS (0–0.5 mg/mL) for 1 h, then mixed with 100 TCID50/50 µL EV-A71/FY0805, RD cells 24 h, crystal violet
# Experimental: To confirm the interaction of P25 with receptor heparan sulfate (HS) on the cell surface, 50 µL P25 or its derivatives at a concentration of 62.5 µg/mL were pre-incubated with 50 µL cell-free HS (MCE, HY-101916, Princeton, NJ, USA) at different concentrations of 0–0.5 mg/mL at 37 °C for 1 h, mixed with 100 TCID50/50 µL of EV-A71/FY0805, and infected the pre-seeding RD monolayer cells on 96-well plates for 24 h. The CPE was detected and stained using crystal violet. The optical density (OD) at 550 nm was read using the TECAN Infinite 200 PRO instrument.
# [3] = test system: Poliovirus 3/nOPV3; details: 24 h
# [4] = test system: RD cells; test: Cytotoxicity assay (CCK-8); format: cell-based; details: 24 h, 2-fold dilutions from 1 mg/mL, CCK-8, absorbance 450 nm, mean ± SD, at least two independent experiments
# Experimental: RD cells at a density of 4 × 10^4/100 µL/well were seeded in 96-well plates 24 h prior to the cytotoxicity assay. The peptide P25 and its derivatives were reconstituted in DMSO to a concentration of 25 mg/mL and then diluted to 1 mg/mL in DMEM with 100 mM HEPES, from which 2-fold serial dilutions of the peptides were produced, starting with the same medium. DMSO diluted in the same medium served as the control. Fifty microliters of diluted peptides and the control medium were added to the cells and cultured for 24 h. After cultivation, 5 µL of the enhanced CCK-8 reagent (Beyotime, C0043, Shanghai, China) were added directly to each well of the cell culture and cultured for an additional hour. Absorbance at 450 nm was detected using a TECAN Infinite 200 PRO instrument. The cell viability was normalized to the control, and the concentration at which a peptide inhibited 50% of the cell viability (CC50) was calculated using GraphPad Prism 9.5.1 (GraphPad software, San Diego, CA, USA).
# [5] = test system: EV-D68; test: Immunostaining of viral VP1 after post-infection peptide treatment; format: cell-based; details: RD cells infected with 10 TCID50/50 µL EV-D68 for 1 h, washed, peptide at 125 µg/mL for 24 h, VP1 immune-stained area (ImageJ)
# Experimental: RD cells at a density of 4 × 10^4/100 µL/well were seeded in 96-well plates 24 h prior to infection. Fifty microliters of the diluted peptide P25 were added under the following conditions: (1) pre-treatment: cells were pretreated with the peptides for 6 h, 4 h, and 2 h at 35 °C, followed by washing twice with DMEM before virus infection; (2) co-treatment: the peptide was added to the cells together with virus without washing; (3) post-treatment: […] to the medium. Co-treatment with a homemade neutralizing antibody of EV-D68 was employed as the reference control. An amount of 100 TCID50/50 µL was used for the CPE reading, while 10 TCID50/50 µL was used for immunostaining. After 22–24 h of incubation the cells were fixed using 4% formaldehyde and stained with crystal violet or an antibody. The staining of crystal violet was measured at 550 nm using a TECAN Infinite 200 PRO instrument. To detect EV-D68, the polyclonal anti-VP1 (Genetek, GTX132313, South San Francisco, CA, USA) was employed for immunostaining, while the rabbit polyclonal anti-VP1 for the staining of Echo11 was prepared in our laboratory. […] The number of plaques was counted using the CTL ELISPOT reader. […]
# [6] = test system: EV-D68/BCH895A; details: RD cells, 24 h, crystal violet
# [7] = test system: Echo 30/WZ16; details: RD cells, 24 h, crystal violet
# [8] = test system: HCV; details: cited from earlier work
# [9] = test system: EV-A71; details: Table S2, anti-viral target EV-A71; ref [21]; cited from earlier work
# Excerpt: page 2: Biomolecules 2024, 14, 1331. https://doi.org/10.3390/biom14101331 2 of 10 Table S2. Self-derived antiviral peptides. Source Virus Protein Peptide Sequence Mechanism Anti-viral EC50 Reference target […] Interfering PA- Influenza A PB1 PB11-25 TTFPYT binding domain of Influenza A / [48] PB1 PB1731– […] Interfering PB1- Influenza A PB1 757 ELGRQK binding domain of Influenza A / [22] PB2 EV-A71 VP1 SP40 […] Prevented EV-A71 EV-A71 6-9.3 [21] attachment μM […] Inhibiting S 0.32- HCoV-19 S P3 […] mediated cell–cell HC ...
# [10] = co-treatment, 100 TCID50/50 µL, mean ± SD, at least two independent experiments, >125 = protection less than 50% at 125 µg/mL, NO = no inhibition observed
# [11] = peptide at 125 µg/mL (about 56 µM) co-incubated with 100 TCID50/50 µL virus
compound,measurement,setting,value
CC[C@H](C)[C@H](NC(=O)[C@H](Cc1c[nH]cn1)NC(=O)[C@H](CCCCN)NC(=O)[C@@H]1CCCN1C(=O)[C@H](CCCCN)NC(=O)[C@H](CCSC)NC(=O)[C@H](Cc1ccc(O)cc1)NC(=O)[C@@H](NC(=O)[C@H](CCCNC(=N)N)NC(=O)[C@@H](NC(=O)[C@@H](NC(=O)[C@@H](NC(=O)[C@@H](N)[C@@H](C)O)C(C)C)[C@@H](C)O)C(C)C)C(C)C)C(=O)N[C@@H](CCCCN)C(=O)O [Peptide P25.2],IC50 (µg/mL) EV-A71 /FY0805,[1],>125 µg/mL
CC[C@H](C)[C@H](NC(=O)[C@H](Cc1c[nH]cn1)NC(=O)[C@H](CCCCN)NC(=O)[C@@H]1CCCN1C(=O)[C@H](CCCCN)NC(=O)[C@H](CCSC)NC(=O)[C@H](Cc1ccc(O)cc1)NC(=O)[C@@H](NC(=O)[C@H](CCCNC(=N)N)NC(=O)[C@@H](NC(=O)[C@@H](NC(=O)[C@@H](NC(=O)[C@@H](N)[C@@H](C)O)C(C)C)[C@@H](C)O)C(C)C)C(C)C)C(=O)N[C@@H](CCCCN)C(=O)N[C@@H](C)C(=O)N[C@@H](Cc1c[nH]c2ccccc12)C(=O)N[C@@H](C)C(=O)O [Peptide P25.5],Interference of HS with the antiviral activity of the peptide,[2],No significant interference
same,IC50 (µg/mL) EV-A71 /FY0805,[1],>125 µg/mL
CC[C@H](C)[C@H](NC(=O)[C@H](Cc1c[nH]cn1)NC(=O)[C@H](CCCCN)NC(=O)[C@@H]1CCCN1C(=O)[C@H](CCCCN)NC(=O)[C@H](CCSC)NC(=O)[C@H](Cc1ccc(O)cc1)NC(=O)[C@@H](NC(=O)[C@H](CCCNC(=N)N)NC(=O)[C@@H](NC(=O)[C@@H](NC(=O)[C@@H](NC(=O)[C@@H](NC(=O)[C@@H](N)Cc1ccccc1)[C@@H](C)O)C(C)C)[C@@H](C)O)C(C)C)C(C)C)C(=O)N[C@@H](CCCCN)C(=O)N[C@@H](C)C(=O)N[C@@H](Cc1c[nH]c2ccccc12)C(=O)N[C@@H](C)C(=O)O [Peptide P25.8],Interference of HS with the antiviral activity of the peptide,[2],interfered with by HS
same,IC50 (µg/mL) EV-A71 /FY0805,[1],24.49 ± 2.96 µg/mL
same,IC50 (µg/mL) Poliovirus 3 /nOPV3,[3],61.65 ± 4.59 µg/mL
same,CC50,[4],213.07 ± 29.72 µg/mL
CC[C@H](C)[C@H](NC(=O)[C@H](Cc1c[nH]cn1)NC(=O)[C@H](CCCCN)NC(=O)[C@@H]1CCCN1C(=O)[C@H](CCCCN)NC(=O)[C@H](CCSC)NC(=O)[C@H](Cc1ccc(O)cc1)NC(=O)[C@@H](NC(=O)[C@H](CCCNC(=N)N)NC(=O)[C@@H](NC(=O)[C@@H](NC(=O)[C@@H](NC(=O)[C@@H](NC(=O)[C@H](Cc1ccccc1)NC(=O)CNC(=O)[C@@H](NC(=O)[C@@H]1CCCN1C(=O)[C@H](CCC(N)=O)NC(=O)[C@@H](N)Cc1c[nH]cn1)C(C)C)[C@@H](C)O)C(C)C)[C@@H](C)O)C(C)C)C(C)C)C(=O)N[C@@H](CCCCN)C(=O)O [Peptide P25.9],Inhibition of the synthesis of the viral protein,[5],significantly inhibited the synthesis of the viral protein
same,Interference of HS with the antiviral activity of the peptide,[2],interfered with by HS
same,IC50 (µg/mL) EV-A71 /FY0805,[1],13.02 ± 0.81 µg/mL
same,IC50 (µg/mL) Poliovirus 3 /nOPV3,[3],108.10 ± 39.15 µg/mL
CC[C@H](C)[C@H](NC(=O)[C@H](Cc1c[nH]cn1)NC(=O)[C@H](C)NC(=O)[C@@H]1CCCN1C(=O)[C@H](CCCCN)NC(=O)[C@H](CCSC)NC(=O)[C@H](Cc1ccc(O)cc1)NC(=O)[C@@H](NC(=O)[C@H](CCCNC(=N)N)NC(=O)[C@@H](NC(=O)[C@@H](NC(=O)[C@@H](NC(=O)[C@@H](NC(=O)[C@H](Cc1ccccc1)NC(=O)CN)[C@@H](C)O)C(C)C)[C@@H](C)O)C(C)C)C(C)C)C(=O)N[C@@H](C)C(=O)N[C@@H](C)C(=O)N[C@@H](Cc1c[nH]c2ccccc12)C(=O)N[C@@H](C)C(=O)O [Peptide P25.12],IC50 (µg/mL) EV-A71 /FY0805,[1],41.17 ± 7.04 µg/mL
CC[C@H](C)[C@H](NC(=O)[C@H](CCCNC(=N)N)NC(=O)[C@@H](NC(=O)[C@@H](NC(=O)[C@@H](NC(=O)[C@H](CCCCN)NC(=O)[C@H](Cc1ccccc1)NC(=O)CN)C(C)C)C(C)C)[C@@H](C)O)C(=O)N[C@@H](Cc1ccc(O)cc1)C(=O)N[C@@H](Cc1c[nH]cn1)C(=O)N[C@@H](CCCCN)C(=O)N[C@@H](C)C(=O)N[C@@H](CCCCN)C(=O)N[C@@H](Cc1c[nH]cn1)C(=O)N[C@H](C(=O)N[C@@H](CCCCN)C(=O)N[C@@H](C)C(=O)N[C@@H](Cc1c[nH]c2ccccc12)C(=O)N[C@@H](CS)C(=O)O)[C@@H](C)O [Peptide P25.A81GF],IC50 (µg/mL) EV-D68 /BCH895A,[6]; [10],>125 µg/mL
same,IC50 (µg/mL) Echo 30 /WZ16,[7]; [10],>125 µg/mL
same,IC50 (µg/mL) EV-A71 /FY0805,[1],29.28 ± 3.97 µg/mL
same,IC50 (µg/mL) Poliovirus 3 /nOPV3,[3],>125 µg/mL
CC[C@H](C)[C@H](NC(=O)[C@H](CCCNC(=N)N)NC(=O)[C@@H](NC(=O)[C@@H](NC(=O)[C@@H](NC(=O)[C@H](CCCCN)NC(=O)[C@@H](NC(=O)[C@@H](N)CCCCN)C(C)C)C(C)C)C(C)C)[C@@H](C)O)C(=O)N[C@@H](Cc1ccc(O)cc1)C(=O)N[C@@H](Cc1c[nH]cn1)C(=O)N[C@@H](CCCCN)C(=O)N[C@@H](C)C(=O)N[C@@H](CCCCN)C(=O)N[C@@H](Cc1c[nH]cn1)C(=O)N[C@H](C(=O)N[C@@H](CCCCN)C(=O)N[C@@H](C)C(=O)N[C@@H](Cc1c[nH]c2ccccc12)C(=O)N[C@@H](CS)C(=O)O)[C@@H](C)O [Peptide P25.A81],Antiviral activity of P25 homologous peptides to EV-A71/FY0805,[1],displayed antiviral activity
same,IC50 (µg/mL) EV-A71 /FY0805,[1],23.60 ± 0.49 µg/mL
ADKNFFKWTINTRSFVQLRR [Peptide P11],"Inhibitory effect on CPE, peptide screen",[6]; [11],exhibited inhibitory effects on CPE
same,"Inhibitory effect on CPE, peptide screen",[7]; [11],exhibited inhibitory effects on CPE
same,"Inhibitory effect on CPE, peptide screen",[1],exhibited inhibitory effects on CPE
AWAKIHKPKMYVRVTVTFG [Peptide P25.R],CC50,[4],98.27 ± 7.13 µg/mL
GFTVTVRVYMK [Peptide P25.1],IC50 (µg/mL) EV-A71 /FY0805,[1],34.06 ± 9.39 µg/mL
HGLLYFAIFFVAAWHIRGR [Peptide H2-3],EC50,[8],540 nM
"QMRRKVELFTYMRFD [SP40, peptide derived from VP1 of EV-A71, prevented EV-A71 attachment]",EC50,[9],6000 to 9300 nM
SFAIKWEYVLLLFLL [Peptide 75],EC50,[8],300 nM
"SWLRDIWDWICEVLSDFK [Peptide C5A, peptide from NS5A of HCV, destabilizing viral membranes]",EC50,[8],340 nM
TVTVRVYHK [Peptide P25.4],IC50 (µg/mL) EV-A71 /FY0805,[1],>125 µg/mL
TVTVRVYMK [Peptide P25.3],IC50 (µg/mL) EV-A71 /FY0805,[1],>125 µg/mL
